≈ marks a conversion by molar mass, not a printed value. Read-outs that look alike come from different tables or passages of the source.

Series [1] can be described thus: Solubility in FaSSIF and FeSSIF. Format: physicochemical. Particulars: thermodynamic from solid. Here is the method:
Solubility was determined at ambient temperature in buffered fasted-state simulated intestinal fluid (FaSSIF, pH 6.5) and buffered fed-state simulated intestinal fluid (FeSSIF, pH 5.0) prepared in-house using BioRelevant Simulated Intestinal Fluid (SIF) powder. Solids were added to FaSSIF or FeSSIF in 1.5-mL Eppendorf tubes, sonicated for 1 minute, then agitated for 2.5 hours in an Eppendorf ThermoMixer C. To determine concentration in solution, the suspensions were centrifuged for 10 min at 14,800 rpm and supernatants were diluted to a volume of 1 mL with 1:1 v/v acetonitrile:water. All diluted supernatants were analyzed by UPLC using a Waters Acquity UPLC with a PDA UV detector.

A further series is described as follows: Human plasma stability. Format: in vitro ADME. The conditions noted are these: substrate 2 μM, read-out: Human Plasma T½. Here is the method: (§1) Plasma stability assays were performed in human and dog. Duplicate sets were performed with a tecan liquid handler or with cluster tubes in a heat block. Generally, a substrate concentration of 2 μM was used. Plasma in sodium EDTA was provided by BioIVT as whole plasma with K2 EDA as anti-coagulent.

A further series in a line: Dog plasma stability. Particulars: substrate 2 μM, read-out: Dog Plasma T½. It counts as in vitro ADME. How it is done: as §1
Series [2] is described as follows: In vivo dog pharmacokinetics. The conditions noted are these: beagle dogs; for AUC0-72 h of the named analyte in plasma: label = analyte measured.
The mark [3] stands for this setting: fasted-state simulated intestinal fluid (FaSSIF), fassif, fasted-state simulated intestinal fluid pH 6.5, ambient temperature, read-out: FaSSIF (pH 6.5) solubility.
The mark [4] stands for this setting: fed-state simulated intestinal fluid (FeSSIF), fessif, fed-state simulated intestinal fluid pH 5.0, ambient temperature, read-out: FeSSIF (pH 5.0) solubility.
The mark [5] stands for this setting: oral powder in capsule, dosed Compound B 9.7 mg-eq/kg.

Experimental for Dog GI S9 stability: (§2) GI S9 stability assays were performed. Generally, a substrate concentration of 2 μM was used, a protein concentration of 1.0 mg/mL intestinal S9 was used, and a reaction buffer of 1× phosphate buffered saline (PBS) was used. Intestinal S9 was provided by BioIVT (dog) or Xenotech (human). […] Plates were vortexed, and then centrifuged at 3000×G for 30 minutes. 150 μL of supernatant was transferred to new plates and 150 μL water was added. New plates were vortexed to mix.
(§3) Samples were analyzed with a Leap HTC Autosampler and a Dionex UltiMate 3000 HPLC system interfaced to a Thermo Q-Exactive mass spectrometer operation in positive ion electrospray mode. A Thermo Scientific Hypersil GOLD (1.9 μM particle size, 50×2.1 mm) HPLC column was used and mobile phase was pumped at 0.5 mL/min. Elution of analytes was achieved by a series of linear gradients of acetonitrile in water containing 0.1% (v/v) formic acid. Quantification was by analyte/internal standard peak area ratio (PAR).
Experimental for Human GI S9 stability: as §2, §3

Turning to `Cc1nc(F)ccc1[C@@H](c1cn(C23CC(C2)C3)nn1)N(C(=O)C(=O)O)c1cc(C#N)c2ncc(C#N)c(N[C@H](C)C(C)(C)C)c2c1` [Example 13, 2-(((S)-(1-(bicyclo[1.1.1]pentan-1-yl)-1H-1,2,3-triazol-4-yl)(6-fluoro-2-methylpyridin-3-yl)methyl)(3,8-dicyano-4-(((R)-3,3-dimethylbutan-2-yl)amino)quinolin-6-yl)amino)-2-oxoacetic acid], the half-life at 2 μM in “Human GI S9 stability” (intestinal S9) and in “Dog GI S9 stability” (intestinal S9) was 789 min in each case.

What is called solubility is how much of the substance goes into solution per volume. Regarding `C[C@H](N)C(=O)OCOC(=O)N(c1cc(Cl)c2ncc(C#N)c(NCC(C)(C)C)c2c1)[C@H](c1cn(C23CC(C2)C3)nn1)c1cccc2c(=O)n(C)ccc12` [Example 2, ((((S)-(1-(bicyclo[1.1.1]pentan-1-yl)-1H-1,2,3-triazol-4-yl)(2-methyl-1-oxo-1,2-dihydroisoquinolin-5-yl)methyl)(8-chloro-3-cyano-4-(neopentylamino)quinolin-6-yl)carbamoyl)oxy)methyl L-alaninate], the solubility at 2.5 h was greater than 1880 µg/mL in series [1] (setting [3]) and greater than 1910 µg/mL in series [1] (setting [4]). For the same molecule, the half-life at 2 μM in the series “Human GI S9 stability” (intestinal S9) is less than 1 min; in “Human plasma stability”, 14 min; in the series “Dog plasma stability”, 3 min; in the series “Dog GI S9 stability” (intestinal S9), 1 min.

Turning to `Cn1ccc2c([C@@H](c3cn(C45CC(C4)C5)nn3)N(C(=O)OCOP(=O)(O)O)c3cc(Cl)c4ncc(C#N)c(NCC(C)(C)C)c4c3)cccc2c1=O` [Compound B], in series [2] (setting [5]), the “AUC0-72 h of the named analyte in plasma” value was “BLQ”.

`CC(=O)OCOC(=O)N(c1cc(C#N)c2ncc(C#N)c(NCC(C)(C)C)c2c1)[C@H](c1cn(C23CC(C2)C3)nn1)c1ccc(F)nc1C` [Example 7, (S)-((((1-(bicyclo[1.1.1]pentan-1-yl)-1H-1,2,3-triazol-4-yl)(6-fluoro-2-methylpyridin-3-yl)methyl)(3,8-dicyano-4-(neopentylamino)quinolin-6-yl)carbamoyl)oxy)methyl acetate]: the solubility at 2.5 h is 12 µg/mL in series [1] (setting [3]) and 42 µg/mL in series [1] (setting [4]). The molecule also yielded a half-life at 2 μM in the series “Human GI S9 stability” (intestinal S9) of 3 min.

In the case of `Cc1nc(F)ccc1[C@@H](c1cn(C23CC(C2)C3)nn1)N(C(=O)OCOC(=O)C1CCN(C)CC1)c1cc(C#N)c2ncc(C#N)c(NCC(C)(C)C)c2c1` [Example 8, (S)-((((1-(bicyclo[1.1.1]pentan-1-yl)-1H-1,2,3-triazol-4-yl)(6-fluoro-2-methylpyridin-3-yl)methyl)(3,8-dicyano-4-(neopentylamino)quinolin-6-yl)carbamoyl)oxy)methyl 1-methylpiperidine-4-carboxylate], the solubility at 2.5 h is 77 µg/mL (≈ 105 µM) in series [1] (setting [3]) and 450 µg/mL (≈ 612 µM) in series [1] (setting [4]). The half-life at 2 μM was 165 min in “Human GI S9 stability” (intestinal S9) and 237 min in “Human plasma stability”.

As for `Cc1nc(F)ccc1[C@@H](c1cn(C23CC(C2)C3)nn1)N(C(=O)OCOP(=O)(O)O)c1cc(C#N)c2ncc(C#N)c(NCC(C)(C)C)c2c1` [Example 6, (Phosphonooxy)methyl (S)-((1-(bicyclo[1.1.1]pentan-1-yl)-1H-1,2,3-triazol-4-yl)(6-fluoro-2-methylpyridin-3-yl)methyl)(3,8-dicyano-4-(neopentylamino)quinolin-6-yl)carbamate], the results for the half-life at 2 μM in the series “Human GI S9 stability” (s9) and in “Dog GI S9 stability” (s9) were 25 min and 14 min, respectively.

As to `COC[C@@H](C)OC(=O)N(c1cc(C#N)c2ncc(C#N)c(NCC(C)(C)C)c2c1)[C@H](c1cn(C23CC(C2)C3)nn1)c1ccc(F)nc1C` [Example 9, (R)-1-methoxypropan-2-yl ((S)-(1-(bicyclo[1.1.1]pentan-1-yl)-1H-1,2,3-triazol-4-yl)(6-fluoro-2-methylpyridin-3-yl)methyl)(3,8-dicyano-4-(neopentylamino)quinolin-6-yl)carbamate], the solubility at 2.5 h in series [1] (setting [3]) is 12 µg/mL (≈ 18.4 µM); in series [1] (setting [4]), 52 µg/mL (≈ 79.8 µM). Also, the half-life at 2 μM is 789 min in the series “Human GI S9 stability” (intestinal S9) and 1580 min in “Human plasma stability”.

Regarding `Cn1ccc2c([C@@H](c3cn(C45CC(C4)C5)nn3)N(C(=O)OCO)c3cc(Cl)c4ncc(C#N)c(NCC(C)(C)C)c4c3)cccc2c1=O` [Intermediate A], the “AUC0-72 h of the named analyte in plasma” value in series [2] (setting [5]) is listed as “BLQ”.

For `Cc1nc(F)ccc1[C@@H](c1cn(C23CC(C2)C3)nn1)N(C(=O)OCOP(=O)(O)O)c1cc(C#N)c2ncc(C#N)c(N[C@H](C)C(C)(C)C)c2c1` [Example 10, (Phosphonooxy)methyl ((S)-(1-(bicyclo[1.1.1]pentan-1-yl)-1H-1,2,3-triazol-4-yl)(6-fluoro-2-methylpyridin-3-yl)methyl)(3,8-dicyano-4-(((R)-3,3-dimethylbutan-2-yl)amino)quinolin-6-yl)carbamate], the half-life at 2 μM is 26 min in the series “Human GI S9 stability” (s9) and 20 min in “Dog GI S9 stability” (s9).

`Cn1ccc2c([C@@H](c3cn(C45CC(C4)C5)nn3)N(C(=O)OCCCOP(=O)(O)O)c3cc(Cl)c4ncc(C#N)c(NCC(C)(C)C)c4c3)cccc2c1=O` [Example 4, 3-(Phosphonooxy)propyl (S)-((1-(bicyclo[1.1.1]pentan-1-yl)-1H-1,2,3-triazol-4-yl)(2-methyl-1-oxo-1,2-dihydroisoquinolin-5-yl)methyl)(8-chloro-3-cyano-4-(neopentylamino)quinolin-6-yl)carbamate]: the solubility at 2.5 h in series [1] (setting [3]) was 4 µg/mL (≈ 5.16 µM); in series [1] (setting [4]) it was 210 µg/mL (≈ 271 µM). Further, the half-life at 2 μM was 21 min in “Human GI S9 stability” (s9) and 12 min in the series “Dog GI S9 stability” (s9).

For the molecule `COC[C@@H](C)OC(=O)N(c1cc(C#N)c2ncc(C#N)c(N[C@H](C)C(C)(C)C)c2c1)[C@H](c1cn(C23CC(C2)C3)nn1)c1ccc(F)nc1C` [Example 12, (R)-1-methoxypropan-2-yl ((S)-(1-(bicyclo[1.1.1]pentan-1-yl)-1H-1,2,3-triazol-4-yl)(6-fluoro-2-methylpyridin-3-yl)methyl)(3,8-dicyano-4-(((R)-3,3-dimethylbutan-2-yl)amino)quinolin-6-yl)carbamate], the results for the half-life at 2 μM in the series “Human GI S9 stability” (intestinal S9) and in “Dog GI S9 stability” (intestinal S9) were 477 min and 528 min, respectively.

Regarding `Cn1ccc2c([C@@H](c3cn(C45CC(C4)C5)nn3)N(C(=O)OCOP(=O)(O)O)c3cc(Cl)c4ncc(C#N)c(NCC(C)(C)C)c4c3)cccc2c1=O` [Example 1, (Phosphonooxy)methyl (S)-((1-(bicyclo[1.1.1]pentan-1-yl)-1H-1,2,3-triazol-4-yl)(2-methyl-1-oxo-1,2-dihydroisoquinolin-5-yl)methyl)(8-chloro-3-cyano-4-(neopentylamino)quinolin-6-yl)carbamate], the values for the solubility at 2.5 h in series [1] (setting [3]) and in series [1] (setting [4]) were greater than 1580 µg/mL and greater than 2170 µg/mL, respectively. Also, the half-life at 2 μM was found to be 43 min in “Human GI S9 stability” (intestinal S9), 369 min in the series “Human plasma stability”, 278 min in the series “Dog plasma stability” and 26 min in “Dog GI S9 stability” (intestinal S9).

As for `Cn1ccc2c([C@@H](c3cn(C45CC(C4)C5)nn3)N(C(=O)OCCCOP(=O)(O)O)c3cc(Cl)c4ncc(C#N)c(NCC(C)(C)C)c4c3)cccc2c1=O` [Compound C], in series [2] (oral 3 mg/mL solution, dosed Compound C 3 mg-eq/kg), the “AUC0-72 h of the named analyte in plasma” value is reported as “BLQ”. Further, the “in vivo conversion of dosed compound” value in series [2] (oral solution of Compound C, plasma over 72 hour) is “converted in vivo to both Compound D and Compound A in measurable amounts”.

Values taken from patent US20220259234A1, “COT MODULATORS AND METHODS OF USE THEREOF” (Gilead Sciences, Inc., priority 2019, published 2022).
